Data: paper PMC7125355 (Translational Oncology, 2020)
Like-named read-outs stand apart in the source and are kept apart here. Values belong to the compound of their own block, whether it stands above or below them.

How the values were obtained:
BaF3-FLT3-ITD-N676D = test: cells; parameters: species or system Ba/F3 stable lines
BaF3-tel-FLT3-R834Q = test: cells; parameters: species or system Ba/F3 stable lines
EOL-1^PDGFRα = test: cells; parameters: species or system human leukemia lines named per line
HL60^Flt3-WT = test: cells; parameters: species or system human leukemia lines named per line
KG1^FGFR1OP2-FGFR1 = test: cells; parameters: species or system human leukemia lines named per line
MEG01^Flt-WT = test: cells; parameters: species or system human leukemia lines named per line; conditions: read-out: Quizaritinib (AC220); 72 h proliferation, mean ± SD; inhibitor
MOLM-13^Flt3-ITD = test: cells; parameters: species or system human leukemia lines named per line
MOLT4^Flt3-WT = test: cells; parameters: species or system human leukemia lines named per line
MV411^Flt3-ITD = test: cells; parameters: species or system human leukemia lines named per line
NB4^Flt3-WT = test: cells; parameters: species or system human leukemia lines named per line; conditions: read-out: Quizaritinib (AC220); 72 h proliferation, mean ± SD; inhibitor
THP1^Flt3-WT = test: cells; parameters: species or system human leukemia lines named per line
U937^Flt3-WT = test: cells; parameters: species or system human leukemia lines named per line
BaF3-FLT3-D835H = test: cells; parameters: species or system Ba/F3 stable lines
BaF3-FLT3-D835V = test: cells; parameters: species or system Ba/F3 stable lines
BaF3-FLT3-ITD-D835G = test: cells; parameters: species or system Ba/F3 stable lines; conditions: read-out: Quizartinib / (AC220); 72 h proliferation; inhibitor
BaF3-FLT3-ITD-D835I = test: cells; parameters: species or system Ba/F3 stable lines; conditions: read-out: Quizartinib / (AC220); 72 h proliferation; inhibitor
BaF3-FLT3-ITD-D835N = test: cells; parameters: species or system Ba/F3 stable lines; conditions: read-out: Quizartinib / (AC220); 72 h proliferation; inhibitor
BaF3-FLT3-ITD-D835V = test: cells; parameters: species or system Ba/F3 stable lines; conditions: read-out: Quizartinib / (AC220); 72 h proliferation; inhibitor
BaF3-FLT3-ITD-D835Y = test: cells; parameters: species or system Ba/F3 stable lines
BaF3-FLT3-ITD-F691I = test: cells; parameters: species or system Ba/F3 stable lines; conditions: read-out: Quizartinib / (AC220); 72 h proliferation; inhibitor
BaF3-FLT3-ITD-G697R = test: cells; parameters: species or system Ba/F3 stable lines; conditions: read-out: Quizartinib / (AC220); 72 h proliferation; inhibitor
BaF3-FLT3-ITD-Y842H = test: cells; parameters: species or system Ba/F3 stable lines
BaF3-FLT3-ITD-Y842R = test: cells; parameters: species or system Ba/F3 stable lines; conditions: read-out: Quizartinib / (AC220); 72 h proliferation; inhibitor
BaF3-FLT3-MOLM-ITD = test: cells; parameters: species or system Ba/F3 stable lines
BaF3-Tel-FLT3-ITD = test: cells; parameters: species or system Ba/F3 stable lines; conditions: read-out: Quizartinib / (AC220); 72 h proliferation; inhibitor
BaF3-tel-FLT3-D835Y = test: cells; parameters: species or system Ba/F3 stable lines
BaF3-tel-FLT3-K663Q = test: cells; parameters: species or system Ba/F3 stable lines
BaF3-tel-FLT3 = test: cells; parameters: species or system Ba/F3 stable lines; conditions: read-out: Quizartinib / (AC220); 72 h proliferation; inhibitor
PDGFRα = PDGFRα (Homo sapiens, UniProt P16234); test: FRET-based Z'-Lyte kinase assay, parallel comparison; format: biochemical
Sequence of PDGFRα (P16234 24-1089): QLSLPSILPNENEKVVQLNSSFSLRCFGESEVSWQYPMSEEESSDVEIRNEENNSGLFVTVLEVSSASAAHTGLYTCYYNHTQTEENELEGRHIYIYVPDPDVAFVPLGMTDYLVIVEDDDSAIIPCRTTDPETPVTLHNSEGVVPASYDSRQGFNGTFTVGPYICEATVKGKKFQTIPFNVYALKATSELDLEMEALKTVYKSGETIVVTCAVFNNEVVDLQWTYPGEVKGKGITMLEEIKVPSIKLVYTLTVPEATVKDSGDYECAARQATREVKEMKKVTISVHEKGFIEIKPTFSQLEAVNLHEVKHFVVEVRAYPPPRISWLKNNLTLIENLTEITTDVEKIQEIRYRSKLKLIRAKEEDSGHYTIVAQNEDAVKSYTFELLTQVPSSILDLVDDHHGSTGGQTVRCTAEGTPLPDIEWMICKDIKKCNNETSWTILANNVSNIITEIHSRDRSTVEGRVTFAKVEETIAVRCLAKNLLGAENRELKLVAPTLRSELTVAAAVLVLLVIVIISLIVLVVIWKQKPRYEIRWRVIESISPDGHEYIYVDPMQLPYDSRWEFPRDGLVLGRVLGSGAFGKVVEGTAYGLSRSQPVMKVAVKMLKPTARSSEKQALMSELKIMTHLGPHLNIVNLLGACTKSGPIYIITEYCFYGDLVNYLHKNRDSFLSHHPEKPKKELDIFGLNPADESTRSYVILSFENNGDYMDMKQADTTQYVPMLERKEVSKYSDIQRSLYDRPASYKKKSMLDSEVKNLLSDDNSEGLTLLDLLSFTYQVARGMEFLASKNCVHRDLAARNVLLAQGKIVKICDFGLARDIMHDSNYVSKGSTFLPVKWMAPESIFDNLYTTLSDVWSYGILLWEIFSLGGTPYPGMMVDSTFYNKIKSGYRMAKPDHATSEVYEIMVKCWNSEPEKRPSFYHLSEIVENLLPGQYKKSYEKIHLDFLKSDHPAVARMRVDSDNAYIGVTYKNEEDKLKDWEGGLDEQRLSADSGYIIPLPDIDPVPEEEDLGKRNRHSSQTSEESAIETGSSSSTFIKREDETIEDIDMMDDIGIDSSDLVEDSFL

[1] = Mus musculus, BaF3, 72 h, read-out: Midostaurin / (PKC412)
[2] = read-out: Quizaritinib (AC220), 72 h proliferation, mean ± SD, inhibitor
[3] = read-out: Quizartinib / (AC220), 72 h proliferation, inhibitor
[4] = 72 h, read-out: GZD824 (HQP1351)
[5] = Mus musculus, BaF3, 72 h, read-out: GZD824
[6] = 72 h, read-out: Gilteritinib (ASP2215)

SMILES: CO[C@@H]1[C@H](N(C)C(=O)c2ccccc2)C[C@H]2O[C@]1(C)n1c3ccccc3c3c4c(c5c6ccccc6n2c5c31)C(=O)NC4 [Midostaurin]
IC50 (BaF3-FLT3-ITD-N676D; [1]): 62.4 nM | IC50 (BaF3-tel-FLT3-R834Q; [1]): 63.1 nM

SMILES: CC(C)(C)c1cc(NC(=O)Nc2ccc(-c3cn4c(n3)sc3cc(OCCN5CCOCC5)ccc34)cc2)no1 [quizartinib]
IC50 (EOL-1^PDGFRα; [2]): 1510 ± 451 nM | IC50 (HL60^Flt3-WT; [2]): 1170 ± 72.1 nM | IC50 (KG1^FGFR1OP2-FGFR1; [2]): 1020 ± 572 nM | IC50 (MEG01^Flt-WT): 3310 ± 1560 nM | IC50 (MOLM-13^Flt3-ITD; [2]): 5.67 ± 9.29 nM | IC50 (MOLT4^Flt3-WT; [2]): 1950 ± 1750 nM | IC50 (MV411^Flt3-ITD; [2]): 1.07 ± 0.32 nM | IC50 (NB4^Flt3-WT): 1990 ± 890 nM | IC50 (THP1^Flt3-WT; [2]): > 1000 nM | IC50 (U937^Flt3-WT; [2]): 1430 ± 246 nM | IC50 (BaF3-FLT3-D835H; [3]): 4 nM | IC50 (BaF3-FLT3-D835V; [3]): 40.2 nM | IC50 (BaF3-FLT3-ITD-D835G): 4.3 nM | IC50 (BaF3-FLT3-ITD-D835I): 183 nM | IC50 (BaF3-FLT3-ITD-D835N): 1.6 nM | IC50 (BaF3-FLT3-ITD-D835V): 126 nM | IC50 (BaF3-FLT3-ITD-D835Y; [3]): 35.5 nM | IC50 (BaF3-FLT3-ITD-F691I): 95 nM | IC50 (BaF3-FLT3-ITD-G697R): 22.8 nM | IC50 (BaF3-FLT3-ITD-N676D; [3]): 8.3 nM | IC50 (BaF3-FLT3-ITD-Y842H; [3]): 5.3 nM | IC50 (BaF3-FLT3-ITD-Y842R): 7.2 nM | IC50 (BaF3-FLT3-MOLM-ITD; [3]): 0.8 nM | IC50 (BaF3-Tel-FLT3-ITD): 2 nM | IC50 (BaF3-tel-FLT3-D835Y; [3]): 2.4 nM | IC50 (BaF3-tel-FLT3-K663Q; [3]): > 1000 nM | IC50 (BaF3-tel-FLT3-R834Q; [3]): > 1000 nM | IC50 (BaF3-tel-FLT3): 3.1 nM

SMILES: Cc1ccc(C(=O)Nc2ccc(CN3CCN(C)CC3)c(C(F)(F)F)c2)cc1C#Cc1cnc2[nH]ncc2c1 [GZD824]
IC50 (EOL-1^PDGFRα; [4]): 7.56 ± 2.73 nM | IC50 (HL60^Flt3-WT; [4]): 922 ± 210 nM | IC50 (KG1^FGFR1OP2-FGFR1; [4]): 3.66 ± 1.93 nM | IC50 (MOLT4^Flt3-WT; [4]): 246 ± 139 nM | IC50 (U937^Flt3-WT; [4]): 1170 ± 105 nM | IC50 (BaF3-FLT3-D835H; [5]): 17.6 nM | IC50 (BaF3-FLT3-D835V; [5]): 34.7 nM | IC50 (BaF3-FLT3-ITD-D835Y; [5]): 35.7 nM | IC50 (BaF3-FLT3-ITD-N676D; [5]): 7.2 nM | IC50 (BaF3-FLT3-ITD-Y842H; [5]): 3.2 nM | IC50 (BaF3-FLT3-MOLM-ITD; [5]): 0.8 nM | IC50 (BaF3-tel-FLT3-D835Y; [5]): 5.7 nM | IC50 (BaF3-tel-FLT3-K663Q; [5]): 853 nM | IC50 (BaF3-tel-FLT3-R834Q; [5]): 76.2 nM

IC50 (PDGFRα): 148 ± 7.78 nM | IC50 (HL60^Flt3-WT; [6]): 689 ± 398 nM | IC50 (MOLM-13^Flt3-ITD; [6]): 9.35 ± 2.23 nM | IC50 (MV411^Flt3-ITD; [6]): 3.34 ± 0.91 nM | IC50 (THP1^Flt3-WT; [6]): > 1000 nM
SMILES: CCc1nc(C(N)=O)c(Nc2ccc(N3CCC(N4CCN(C)CC4)CC3)c(OC)c2)nc1NC1CCOCC1 [gilteritinib]
